Assay results: publication PMC7247319, “The mitochondria-targeted peptide SS-31 binds lipid bilayers and modulates surface electrostatics as a key component of its mechanism of action” (The Journal of Biological Chemistry, 2020)
Where a SMILES comes first, the peptide text is derived from it. [ ]: non-standard residue; d: D form. Dmt = Cc1cc(O)cc(C)c1C[C@H](N)C(=O)O

Experiments:
Experiment in all cases: SS-31 binding isotherms by endogenous 2′,6′-Dmt fluorescence (peptide and lipid titrations)
[1] = tested on: LUVs containing 20 mol % TOCL in a POPC background; settings: 20% TOCL/POPC LUVs, 20 mM HEPES-KOH pH 7.5, Scatchard and Langmuir fits of fluorescence isotherms
From the text: (§1) The interaction of basic amphipathic peptides with negatively charged membranes depends on the electric field originating from the bilayer surface as well as specific electrostatic and hydrophobic interactions between the peptide and lipids (Fig. S2). The first objective of this study was to quantitatively evaluate the binding of SS-31 to model membranes with specific lipid composition. For spectroscopic analysis of SS-31 binding, we made use of the endogenous spectral properties of the 2′,6′-dimethyltyrosine (2′,6′-Dmt) side chain at the second position in the peptide. Our initial spectral characterization of SS-31 confirmed the feasibility of using endogenous peptide fluorescence to quantify peptide-membrane interactions (supporting Results A and B and Figs. S3 and S4). We therefore proceeded to measure the binding of SS-31 to large unilamellar vesicles (LUVs) containing anionic lipids in a host background of the zwitterionic lipid 1-palmitoyl-2-oleoyl-sn-glycero-3-phosphocholine (POPC, 16:0/18:1 PC). The anionic lipids included 1′,3′-bis[1,2-dioleoyl-sn-glycero-3-phospho]-glycerol (tetraoleoylcardiolipin (TOCL), all acyl chains 18:1), monolysocardiolipin (MLCL, all acyl chains 18:1), or 1-palmitoyl-2-oleoyl-sn-glycero-3-phosphoglycerol (POPG, 16:0/18:1 PG). Binding measurements were performed using two complementary approaches: (i) titration of fixed concentrations of LUVs with peptide and (ii) titration of fixed concentrations of peptide with LUVs (supporting Results C and Fig. S5). […]
(§2) Figure 2. […] A–C, fluorescence-based measurements. […] Statistical differences within each data set were determined relative to TOCL-containing membranes: •, p < 0.05; ••, p < 0.01.
(§3) To obtain equilibrium binding parameters n (the number of lipid molecules per peptide bound) and KD (the dissociation constant), we analyzed binding isotherm data by Scatchard analysis (Fig. 2C) and by fits of the data to Langmuir adsorption models (Equations S2 and S3 for peptide and lipid titrations, respectively). […]

[2] = tested on: LUVs containing 20 mol % MLCL in a POPC background; settings: 20% MLCL/POPC LUVs, 20 mM HEPES-KOH pH 7.5, Scatchard and Langmuir fits of fluorescence isotherms
From the text: as §1, §2, §3

[3] = tested on: LUVs containing 20 mol % POPG in a POPC background; settings: 20% POPG/POPC LUVs, 20 mM HEPES-KOH pH 7.5, Scatchard and Langmuir fits of fluorescence isotherms
From the text: as §1, §2, §3

Cc1cc(O)cc(C)c1C[C@H](NC(=O)[C@H](N)CCCNC(=N)N)C(=O)N[C@@H](CCCCN)C(=O)N[C@@H](Cc1ccccc1)C(N)=O [SS-31, D-Arg-2′6′-dimethyl-Tyr-Lys-Phe-NH2] (H-[dR][Dmt]KF-NH2)
n (number of lipid molecules per peptide bound), average lipid/peptide stoichiometry [1]: 6.9 | n (number of lipid molecules per peptide bound), average lipid/peptide stoichiometry [2]: 7.4 | n (number of lipid molecules per peptide bound), average lipid/peptide stoichiometry [3]: 15.4
